Laboratory results: the NIST ThermoML archive (doi:10.1016/j.fluid.2011.11.028)
Numbers after ± are expanded uncertainties.

Key:
[1] = cn = amount concentration of the nth substance listed, in mol/dm3; details: 298.15 K, 101 kPa, Liquid, Alternating current cell with electrodes
[2] = mn = molality of the nth substance listed, in mol/kg; details: 298.15 K, 101 kPa, Liquid; for viscosity: Capillary tube (Ostwald / Ubbelohde) method; for mass density: Vibrating tube method

Which molar conductivity ([1]; c1 = 0.0003264) does the source give for `CCCCCCCC[n+]1ccn(C)c1.[Cl-]` [1-methyl-3-octylimidazolium chloride] + O here?
Its molar conductivity is 0.0101 ± 0.0004 S·m2/mol.

And the molar conductivity ([1]; c1 = 0.000434)?
The molar conductivity was 0.0101 ± 0.0004 S·m2/mol.

What about the molar conductivity ([1]; c1 = 0.0005416) of the same compound?
The molar conductivity was 0.01 ± 0.0004 S·m2/mol.

And the molar conductivity ([1]; c1 = 0.0006484)?
Its molar conductivity is 0.01 ± 0.0004 S·m2/mol.

What about the molar conductivity ([1]; c1 = 0.0007536) of the same compound?
The molar conductivity was 0.01 ± 0.0004 S·m2/mol.

What about the molar conductivity ([1]; c1 = 0.0008878) of the same compound?
Its molar conductivity is 0.00997 ± 0.0004 S·m2/mol.

And the molar conductivity ([1]; c1 = 0.001103)?
The molar conductivity was 0.00995 ± 0.0004 S·m2/mol.

And the molar conductivity ([1]; c1 = 0.001269)?
The molar conductivity was 0.00993 ± 0.0004 S·m2/mol.

And the molar conductivity ([1]; c1 = 0.001538)?
The molar conductivity was 0.0099 ± 0.0004 S·m2/mol.

And the molar conductivity ([1]; c1 = 0.001689)?
The molar conductivity was 0.00989 ± 0.0004 S·m2/mol.

And the molar conductivity ([1]; c1 = 0.001863)?
Its molar conductivity is 0.00987 ± 0.0004 S·m2/mol.

For `CCCCCCCCCCn1cc[n+](C)c1.[Cl-]` [1-decyl-3-methylimidazolium chloride] + O, which molar conductivity ([1]; c1 = 0.0001226) is on record?
The molar conductivity was 0.00997 ± 0.0004 S·m2/mol.

What about the molar conductivity ([1]; c1 = 0.0002378) of the same compound?
Its molar conductivity is 0.00993 ± 0.0004 S·m2/mol.

What about the molar conductivity ([1]; c1 = 0.0003622) of the same compound?
The molar conductivity was 0.0099 ± 0.0004 S·m2/mol.

And the molar conductivity ([1]; c1 = 0.0004428)?
Its molar conductivity is 0.00987 ± 0.0004 S·m2/mol.

What about the molar conductivity ([1]; c1 = 0.0005678) of the same compound?
Its molar conductivity is 0.00984 ± 0.00039 S·m2/mol.

What about the molar conductivity ([1]; c1 = 0.000679) of the same compound?
Its molar conductivity is 0.00981 ± 0.00039 S·m2/mol.

What about the molar conductivity ([1]; c1 = 0.0007671) of the same compound?
The molar conductivity was 0.0098 ± 0.00039 S·m2/mol.

What about the molar conductivity ([1]; c1 = 0.0008693) of the same compound?
The molar conductivity was 0.00978 ± 0.00039 S·m2/mol.

And the molar conductivity ([1]; c1 = 0.001044)?
Its molar conductivity is 0.00975 ± 0.00039 S·m2/mol.

And the molar conductivity ([1]; c1 = 0.001192)?
Its molar conductivity is 0.00974 ± 0.00039 S·m2/mol.

And the molar conductivity ([1]; c1 = 0.001374)?
Its molar conductivity is 0.00972 ± 0.00039 S·m2/mol.

What about the molar conductivity ([1]; c1 = 0.00153) of the same compound?
Its molar conductivity is 0.0097 ± 0.00039 S·m2/mol.

What does the source list for `CCCCn1cc[n+](C)c1.[Cl-]` [1-butyl-3-methylimidazolium chloride] + O?
molar conductivity ([1]; c1 = 0.0004734): 0.0107 ± 0.00043 S·m2/mol; molar conductivity ([1]; c1 = 0.0006936): 0.0106 ± 0.00042 S·m2/mol; molar conductivity ([1]; c1 = 0.0008909): 0.0106 ± 0.00042 S·m2/mol; molar conductivity ([1]; c1 = 0.001113): 0.0105 ± 0.00042 S·m2/mol; molar conductivity ([1]; c1 = 0.001311): 0.0105 ± 0.00042 S·m2/mol; molar conductivity ([1]; c1 = 0.001497): 0.0105 ± 0.00042 S·m2/mol; molar conductivity ([1]; c1 = 0.00167): 0.0105 ± 0.00042 S·m2/mol; molar conductivity ([1]; c1 = 0.001839): 0.0104 ± 0.00042 S·m2/mol; molar conductivity ([1]; c1 = 0.001984): 0.0104 ± 0.00042 S·m2/mol; molar conductivity ([1]; c1 = 0.002099): 0.0104 ± 0.00042 S·m2/mol

Which viscosity ([2]; m1 = 0.2) does the source give for `O=C[C@H](O)[C@@H](O)[C@H](O)[C@H](O)CO` [D-glucose] + O here?
The viscosity was 0.974 ± 0.007 mPa·s.

And the viscosity ([2]; m1 = 0.4)?
The viscosity was 1.066 ± 0.007 mPa·s.

And the viscosity ([2]; m1 = 0.6)?
The viscosity was 1.166 ± 0.008 mPa·s.

And the viscosity ([2]; m1 = 0.8)?
Its viscosity is 1.273 ± 0.009 mPa·s.

What about the viscosity ([2]; m1 = 1) of the same compound?
The viscosity was 1.385 ± 0.01 mPa·s.

And the viscosity ([2]; m1 = 1.2)?
The viscosity was 1.501 ± 0.011 mPa·s.

And the mass density ([2]; m1 = 0.2)?
Its mass density is 1010.39 ± 0.14 kg/m3.

And the mass density ([2]; m1 = 0.4)?
Its mass density is 1023.12 ± 0.16 kg/m3.

And the mass density ([2]; m1 = 0.6)?
Its mass density is 1035.32 ± 0.2 kg/m3.

What about the mass density ([2]; m1 = 0.8) of the same compound?
The mass density was 1046.92 ± 0.23 kg/m3.

And the mass density ([2]; m1 = 1)?
The mass density was 1057.99 ± 0.26 kg/m3.

What about the mass density ([2]; m1 = 1.2) of the same compound?
Its mass density is 1068.59 ± 0.29 kg/m3.

What does the source list for `O=C[C@H](O)[C@@H](O)[C@@H](O)[C@H](O)CO` [(+)-galactose] + O?
viscosity ([2]; m1 = 0.2): 0.97 ± 0.007 mPa·s; viscosity ([2]; m1 = 0.4): 1.06 ± 0.007 mPa·s; viscosity ([2]; m1 = 0.6): 1.16 ± 0.008 mPa·s; viscosity ([2]; m1 = 0.8): 1.267 ± 0.009 mPa·s; viscosity ([2]; m1 = 1): 1.381 ± 0.01 mPa·s; viscosity ([2]; m1 = 1.2): 1.5 ± 0.011 mPa·s; mass density ([2]; m1 = 0.2): 1010.73 ± 0.07 kg/m3; mass density ([2]; m1 = 0.4): 1023.81 ± 0.11 kg/m3; mass density ([2]; m1 = 0.6): 1036.28 ± 0.16 kg/m3; mass density ([2]; m1 = 0.8): 1048.23 ± 0.2 kg/m3; mass density ([2]; m1 = 1): 1059.6 ± 0.2 kg/m3; mass density ([2]; m1 = 1.2): 1070.53 ± 0.27 kg/m3

Which viscosity ([2]; m1 = 0.2) does the source give for `O=C[C@H](O)[C@@H](O)[C@H](O)CO` [D-xylose] + O here?
Its viscosity is 0.953 ± 0.007 mPa·s.

What about the viscosity ([2]; m1 = 0.4) of the same compound?
Its viscosity is 1.022 ± 0.007 mPa·s.

And the viscosity ([2]; m1 = 0.6)?
Its viscosity is 1.096 ± 0.008 mPa·s.

And the viscosity ([2]; m1 = 0.8)?
The viscosity was 1.175 ± 0.008 mPa·s.

And the viscosity ([2]; m1 = 1)?
The viscosity was 1.258 ± 0.009 mPa·s.

And the viscosity ([2]; m1 = 1.2)?
The viscosity was 1.344 ± 0.009 mPa·s.

What about the mass density ([2]; m1 = 0.2) of the same compound?
The mass density was 1007.79 ± 0.06 kg/m3.

What about the mass density ([2]; m1 = 0.4) of the same compound?
The mass density was 1018.1 ± 0.09 kg/m3.

And the mass density ([2]; m1 = 0.6)?
The mass density was 1028.02 ± 0.13 kg/m3.

What about the mass density ([2]; m1 = 0.8) of the same compound?
The mass density was 1037.53 ± 0.16 kg/m3.

And the mass density ([2]; m1 = 1)?
The mass density was 1046.69 ± 0.19 kg/m3.

And the mass density ([2]; m1 = 1.2)?
Its mass density is 1055.41 ± 0.22 kg/m3.

Which results are given for `CCCCCCn1cc[n+](C)c1.[Cl-]` [1-hexyl-3-methylimidazolium chloride] + O?
molar conductivity ([1]; c1 = 0.0001239): 0.0103 ± 0.00041 S·m2/mol; molar conductivity ([1]; c1 = 0.0002407): 0.0103 ± 0.00041 S·m2/mol; molar conductivity ([1]; c1 = 0.0003449): 0.0102 ± 0.00041 S·m2/mol; molar conductivity ([1]; c1 = 0.0004557): 0.0102 ± 0.00041 S·m2/mol; molar conductivity ([1]; c1 = 0.0005824): 0.0102 ± 0.00041 S·m2/mol; molar conductivity ([1]; c1 = 0.0007219): 0.0101 ± 0.0004 S·m2/mol; molar conductivity ([1]; c1 = 0.0008733): 0.0101 ± 0.0004 S·m2/mol; molar conductivity ([1]; c1 = 0.0009879): 0.0101 ± 0.0004 S·m2/mol; molar conductivity ([1]; c1 = 0.001214): 0.0101 ± 0.0004 S·m2/mol; molar conductivity ([1]; c1 = 0.001417): 0.01 ± 0.0004 S·m2/mol; molar conductivity ([1]; c1 = 0.001669): 0.01 ± 0.0004 S·m2/mol; molar conductivity ([1]; c1 = 0.001927): 0.00999 ± 0.0004 S·m2/mol

For `O=C[C@H](O)[C@H](O)[C@H](O)CO` [D-ribose] + O, which viscosity ([2]; m1 = 0.2) is on record?
The viscosity was 0.949 ± 0.007 mPa·s.

And the viscosity ([2]; m1 = 0.4)?
Its viscosity is 1.011 ± 0.007 mPa·s.

And the viscosity ([2]; m1 = 0.6)?
The viscosity was 1.077 ± 0.007 mPa·s.

What about the viscosity ([2]; m1 = 0.8) of the same compound?
Its viscosity is 1.145 ± 0.008 mPa·s.

What about the viscosity ([2]; m1 = 1) of the same compound?
Its viscosity is 1.215 ± 0.008 mPa·s.

What about the viscosity ([2]; m1 = 1.2) of the same compound?
Its viscosity is 1.278 ± 0.009 mPa·s.

And the mass density ([2]; m1 = 0.2)?
Its mass density is 1007.85 ± 0.06 kg/m3.

What about the mass density ([2]; m1 = 0.4) of the same compound?
Its mass density is 1018.22 ± 0.09 kg/m3.

And the mass density ([2]; m1 = 0.6)?
Its mass density is 1028.18 ± 0.13 kg/m3.

What about the mass density ([2]; m1 = 0.8) of the same compound?
The mass density was 1037.77 ± 0.16 kg/m3.

What about the mass density ([2]; m1 = 1) of the same compound?
Its mass density is 1046.98 ± 0.19 kg/m3.

And the mass density ([2]; m1 = 1.2)?
Its mass density is 1055.89 ± 0.22 kg/m3.
